Measured values reported in PubChem BioAssay AID256 (DTP/NCI, 2004).
“And” between values parts separate entries of the source, which are not always exact repeats. Equal values may be shown once. Inconclusive results and toxic doses are left out.

Tested on: CD2F1 mice, L1210 leukemia ip, survival T/C
Test: NCI In Vivo Anticancer Drug Screen. Data for tumor model L1210 Leukemia (intraperitoneal) in CD2F1 (CDF1) mice
Settings: endpoint: mean survival time, higher = longer survival
In short: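 Each value reflects a quotient of treated over vehicle control outcomes in mice with a transplanted tumor.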

[1] = dose: 100.0 mg/kg/injection, schedule: Q01DX009 (ip), vehicle: saline
[2] = dose: 100.0 mg/kg/injection, schedule: Q04DX003 (ip), vehicle: saline with Tween-80
[3] = dose: 200.0 mg/kg/injection, schedule: Q04DX003 (ip), vehicle: saline with Tween-80
[4] = dose: 400.0 mg/kg/injection, schedule: Q04DX003 (ip), vehicle: saline with Tween-80
[5] = dose: 12.5 mg/kg/injection, schedule: Q04DX003 (ip), vehicle: saline
[6] = dose: 25.0 mg/kg/injection, schedule: Q04DX003 (ip), vehicle: saline
[7] = dose: 50.0 mg/kg/injection, schedule: Q04DX003 (ip), vehicle: saline

CC12CCC(=O)C=C1CCCC2=O (stereo not given)
T/C (dose: 50.0 mg/kg/injection, schedule: Q01DX009 (ip), vehicle: saline): 98 % of control
T/C [1]: 96 % of control

Cc1cc(CCl)c(C)cc1CCl
T/C (dose: 6.25 mg/kg/injection, schedule: Q04DX003 (ip), vehicle: saline with Tween-80): 91 % of control
T/C (dose: 12.5 mg/kg/injection, schedule: Q04DX003 (ip), vehicle: saline with Tween-80): 91 % of control
T/C (dose: 25.0 mg/kg/injection, schedule: Q04DX003 (ip), vehicle: saline with Tween-80): 87 % of control
T/C [2]: 98 % of control

O=C(OCC1CC=CC1)C1CC=CC1
T/C (dose: 12.5 mg/kg/injection, schedule: Q01DX009 (ip), vehicle: saline with Tween-80): 104 % of control
T/C (dose: 25.0 mg/kg/injection, schedule: Q01DX009 (ip), vehicle: saline with Tween-80): 95 % of control
T/C (dose: 50.0 mg/kg/injection, schedule: Q01DX009 (ip), vehicle: saline with Tween-80): 98 % of control

C=CCN1/C(=C/C=C\c2sc3ccccc3[n+]2CC=C)Sc2ccccc21
T/C (dose: 2.0 mg/kg/injection, schedule: Q04DX003 (ip), vehicle: saline): 110 % of control
T/C (dose: 4.0 mg/kg/injection, schedule: Q04DX003 (ip), vehicle: saline): 115 % of control

CNNCc1c[nH]c(=O)[nH]c1=O
T/C (dose: 25.0 mg/kg/injection, schedule: Q01DX009 (ip), vehicle: water): 110 % of control
T/C (dose: 50.0 mg/kg/injection, schedule: Q01DX009 (ip), vehicle: water): 102 % of control
T/C (dose: 100.0 mg/kg/injection, schedule: Q01DX009 (ip), vehicle: water): 102 % of control
T/C (dose: 200.0 mg/kg/injection, schedule: Q01DX009 (ip), vehicle: water): 93 % of control
T/C (dose: 400.0 mg/kg/injection, schedule: Q01DX009 (ip), vehicle: water): 100 % of control

N#CCCCN=[N+]=[N-]
T/C (dose: 75.0 mg/kg/injection, schedule: Q01DX001 (ip), vehicle: saline): 96 % of control
T/C (dose: 150.0 mg/kg/injection, schedule: Q01DX001 (ip), vehicle: saline): 101 % of control

O=S(=O)(O)SCCN1CCOCC1
T/C [1]: 103 % of control
T/C [2]: 101 % of control
T/C (dose: 200.0 mg/kg/injection, schedule: Q01DX009 (ip), vehicle: saline): 106 % of control
T/C [3]: 101 % of control
T/C (dose: 400.0 mg/kg/injection, schedule: Q01DX009 (ip), vehicle: saline): 104 % of control
T/C [4]: 100 % of control

CC1C2CC3C(OC(=O)C13)C2I (stereo not given)
T/C (dose: 100.0 mg/kg/injection, schedule: Q01DX009 (ip), vehicle: saline with Tween-80): 95 % of control
T/C [2]: 95 % of control
T/C (dose: 200.0 mg/kg/injection, schedule: Q01DX009 (ip), vehicle: saline with Tween-80): 86 % of control
T/C [3]: 89 % of control
T/C (dose: 400.0 mg/kg/injection, schedule: Q01DX009 (ip), vehicle: saline with Tween-80): 92 % of control
T/C [4]: 87 % of control

Nc1cccc(S(=O)(=O)NNc2cc(Cl)ccc2Cl)c1
T/C [2]: 102 % of control
T/C [3]: 96 % of control
T/C [4]: 95 % of control

Cc1ccc(NCCNCC(C)(C)O)c2c(=O)c3ccccc3sc12
T/C [5]: 100 % of control
T/C [6]: 103 % of control
T/C (dose: 50.0 mg/kg/injection, schedule: Q01DX001 (ip), vehicle: saline): 93 % of control
T/C [7]: 92 % of control

O=C(O)C(O)C(O)C(O)C(O)CO.O=C(O)C(O)C(O)C(O)C(O)CO.[NH-]C1CCCCC1[NH-].[Pt+2] (stereo not given)
T/C (dose: 3.13 mg/kg/injection, schedule: Q04DX003 (ip), vehicle: other): 123 % of control
T/C (dose: 6.25 mg/kg/injection, schedule: Q04DX003 (ip), vehicle: saline): 119 % of control
T/C [5]: 166 % of control
T/C (dose: 25.0 mg/kg/injection, schedule: Q04DX003 (ip), vehicle: other): 162 % of control
T/C [6]: 304 % of control
T/C (dose: 50.0 mg/kg/injection, schedule: Q04DX003 (ip), vehicle: other): 231 % of control
T/C [7]: 281 % of control and 225 % of control
T/C (dose: 100.0 mg/kg/injection, schedule: Q04DX003 (ip), vehicle: saline): 306 % of control and 280 % of control
